Tests used:
C57BL/6 male mice = assay: Hot-plate assay (acute pain); format: in vivo; conditions: morphine 5 mg/kg i.p.
Experimental: The hot-plate test in mice was conducted following previously established method. Six-week-old C57BL/6 male mice were used in hot-plate assay (n = 6). Hot-plate response latency (55°C) after drug treatment was used to measure antinociceptive effect, where response was defined by the animal either by licking paws, flicking paws or jumping. Mice were exposed to the hot plate (Ugo Basile model 7280, Comerio, Italy) for a maximum of 20 s to avoid tissue damage. After three days’ baseline measure, mice were injected intraperitoneally (5 mL/kg) with the solvent mixture, morphine (5 mg/kg) or DK (20, 40 mg/kg) and latency was tested 0.5-, 1-, 2-, 3- and 4- hours post-administration. Evaluation of MOR agonistic and M3R antagonistic activity of DK, naloxone (2 mg/kg) and oxotremorine (0.4 mg/kg) were first injected intraperitoneally, immediately followed by the injection of morphine (5 mg/kg, evaluation of MOR) or DK (20 mg/kg).

M3R = molecular target: T1, M3R (Homo sapiens, UniProt P20309); assay: Radioligand binding assay, [3H] NMS; conditions: [3H] NMS 0.2 nM
T1 construct: expressed in transfected cells; host or cells: HEK293 cell membranes
Experimental: Radioligand binding assays were conducted using MicroBeta2 (PerkinElmer, USA). Membrane protein preparations MOR and M3R were each prepared at a concentration of 2.5 µg/well. The radio ligands [^3H] DAMGO (specific for MOR) and [^3H]-NMS (specific for M3R) were prepared at concentrations of 0.5 nM and 0.2 nM, respectively. […] For each well, 1 µL of the serially diluted test compounds was transferred, followed by the addition of 100 µL of membrane stock solution and 100 µL of radioligand. The plates were sealed and shaken at 300 rpm at room temperature for one hour. Upon completion of the binding assay, the contents of each well were filtered through Unifilter-96 GF/C filter plates (PerkinElmer, USA). The filter plates were dried for one hour at 50°C and sealed. The trapped ^3H (tritium) on the filters was then quantified using the MicroBeta2. The percentage of inhibition or binding was subsequently calculated.

T1 sequence (P20309 whole entry): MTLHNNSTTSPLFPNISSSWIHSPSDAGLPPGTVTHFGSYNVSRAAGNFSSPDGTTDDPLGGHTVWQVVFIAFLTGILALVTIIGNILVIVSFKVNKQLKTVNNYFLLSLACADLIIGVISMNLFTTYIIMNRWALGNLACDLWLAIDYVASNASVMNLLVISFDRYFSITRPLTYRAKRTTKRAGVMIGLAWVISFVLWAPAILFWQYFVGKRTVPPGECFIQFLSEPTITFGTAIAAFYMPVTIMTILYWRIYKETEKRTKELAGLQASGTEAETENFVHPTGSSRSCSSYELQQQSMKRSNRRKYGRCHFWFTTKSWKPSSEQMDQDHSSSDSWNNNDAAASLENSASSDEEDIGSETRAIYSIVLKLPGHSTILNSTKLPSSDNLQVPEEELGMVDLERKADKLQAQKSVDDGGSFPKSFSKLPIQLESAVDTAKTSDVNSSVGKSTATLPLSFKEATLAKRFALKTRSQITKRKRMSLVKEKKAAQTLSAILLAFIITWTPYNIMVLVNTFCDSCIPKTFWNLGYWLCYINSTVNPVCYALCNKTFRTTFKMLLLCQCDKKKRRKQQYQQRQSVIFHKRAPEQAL

SMILES	time course of antinociception (C57BL/6 male mice)	efficacy (maximal inhibition of radioligand binding) (M3R) [%]
CN1CC[C@]23c4c5ccc(O)c4O[C@H]2[C@@H](O)C=C[C@H]3[C@H]1C5 [morphine, reference compound]	largely reduced after one hour and even disappeared at 3 h	–
CN1[C@@H]2C[C@@H](OC(=O)[C@H](CO)c3ccccc3)C[C@H]1[C@@H]1O[C@@H]12 [scopolamine, reference compound]	–	100
